Results as given in patent US9308260B2, “Anticonvulsive pharmaceutical compositions” (INSERM (INSTITUT NATIONAL DE LA SANTE ET DE LA RECHERCHE …, priority 2007, dated 2016).
Entries after “also recorded” stand apart in the source; their conditions may differ.

Tests used:
[1] = system: Wistar rats; experiment: Retinal histology quantification in vigabatrin-treated rats; type: in vivo, rat
Procedure: (§1) As described previously (Duboc, A., et al. Vigabatrin, the GABA-transaminase inhibitor, damages cone photoreceptors in rats. Annals of neurology Vol. 55, 695-705 (2004).), Wistar rats Rj Wi IOPS Han or BALB/c mice were purchased from Janvier (Le Genest-St-Isle, France) at between six and seven weeks of age. VGB dissolved in 0.9% NaCl was administered at 40 mg (125 mg/ml, 0.32 ml) to rats by daily intraperitoneal injection for 45 or 65 days and at 3 mg (60 mg/ml, 0.05 ml) to mice for 29 days. These daily doses (rats: 200 mg/kg; mice: 150 mg/kg) are in-line with those described for the treatment of epilepsy in animals (Andre, V., Ferrandon, A., Marescaux, C. & Nehlig, A. Vigabatrin protects against hippocampal damage but is not antiepileptogenic in the lithium-pilocarpine model of temporal lobe epilepsy. Epilepsy research Vol. 47, 99-117 (2001)) or in humans (adult patients: 1-6 mg/kg; children: 50-75 mg/kg; or infants: 100-400 mg/kg) (Chiron, C., Dumas, C., Jambaque, I., Mumford, J. & Dulac, O. Randomized trial comparing vigabatrin and hydrocortisone in infantile spasms due to tuberous sclerosis. Epilepsy research Vol. 26, 389-395 (1997); Lux, A. L., et al. The United Kingdom Infantile Spasms Study comparing vigabatrin with prednisolone or tetracosactide at 14 days: a multicentre, randomised controlled trial. Lancet Vol. 364, 1773-1778 (2004); Aicardi, J., Mumford, J. P., Dumas, C. & Wood, S. Vigabatrin as initial therapy for infantile spasms: a European retrospective survey. Sabril IS Investigator and Peer Review Groups. Epilepsia Vol. 37, 638-642 (1996)). Taurine supplementation was given in drinking water at a concentration of 0.1M. Light intensity in the animal cages ranged between 125 and 130 lux for rats and between 70 and 85 lux for mice. […]
(§2) For quantification, vertical sections along the dorso-ventral axis were selected at the optic nerve. Following DAPI nuclear staining, the lengths of disorganised retinal areas were measured; GFAP immunostaining was used for detection and quantificationof retinal areas with reactive gliosis. […]

[2] = system: Wistar rats; experiment: Photopic electroretinogram (ERG) in vigabatrin-treated rats; type: in vivo, rat
Procedure: (§3) As described previously (Duboc et al., 2004), Wistar rats Rj Wi IOPS Han and Balb c mice were purchased from Janvier Breeding Center (Le Genest St Isle, France) at 7 weeks. VGB was dissolved in 0.9% NaCl at a concentration of 125 mg/ml. It was administered at 40 mg (125 mg/ml, 0.32 ml) by daily intraperitoneal injection for 45 or 65 days and at 3 mg (60 mg/ml, 0.05 ml) to mice for 29 days (daily dose of about 200 mg/kg in rats and 150 mg/kg in mice). Vitamin B6 (active form) was administered at a dose of 1 mM/kg (solution 154.46 mg/ml) whereas taurine was provided in the drinking water at 0.1 mol/l.
(§4) ERG were recorded as described previously after the last VGB injection (Duboc et al., 2004). Anesthesia was induced by an intramuscular injection of a solution containing ketamine (100 mg/kg) and xylazine (10 mg/kg). After 10 min adaptation to a 2.5 cdm^−2 light intensity, ten recordings were obtained with flash intensity of 10 cdsm^−2 at an interstimulus interval 30 s and subsequently averaged. These photopic ERG measurements were performed after 59 days in rats and 29 days in mice.
As described previously (Duboc, A., et al. Vigabatrin, the GABA-transaminase inhibitor, damages cone photoreceptors in rats. Annals of neurology Vol. 55, 695-705 (2004).), Wistar rats Rj Wi IOPS Han or BALB/c mice were purchased from Janvier (Le Genest-St-Isle, France) at between six and seven weeks of age. VGB dissolved in 0.9% NaCl was administered at 40 mg (125 mg/ml, 0.32 ml) to rats by daily intraperitoneal injection for 45 or 65 days and at 3 mg (60 mg/ml, 0.05 ml) to mice for 29 days. […]
Photopic ERGs were recorded after the last VGB injection, as described previously (Duboc, A., et al. Vigabatrin, the GABA-transaminase inhibitor, damages cone photoreceptors in rats. Annals of neurology Vol. 55, 695-705 (2004).). […]

[3] = system: BALB/c mice; experiment: Photopic electroretinogram (ERG) in vigabatrin-treated mice; type: in vivo, mouse; conditions: 29 days
Procedure: as §3, §4
(§5) As described previously (Duboc, A., et al. Vigabatrin, the GABA-transaminase inhibitor, damages cone photoreceptors in rats. Annals of neurology Vol. 55, 695-705 (2004).), Wistar rats Rj Wi IOPS Han or BALB/c mice were purchased from Janvier (Le Genest-St-Isle, France) at between six and seven weeks of age. VGB dissolved in 0.9% NaCl was administered at 40 mg (125 mg/ml, 0.32 ml) to rats by daily intraperitoneal injection for 45 or 65 days and at 3 mg (60 mg/ml, 0.05 ml) to mice for 29 days. These daily doses (rats: 200 mg/kg; mice: 150 mg/kg) are in-line with those described for the treatment of epilepsy in animals (Andre, V., Ferrandon, A., Marescaux, C. & Nehlig, A. Vigabatrin protects against hippocampal damage but is not antiepileptogenic in the lithium-pilocarpine model of temporal lobe epilepsy. Epilepsy research Vol. 47, 99-117 (2001)) or in humans (adult patients: 1-6 mg/kg; children: 50-75 mg/kg; or infants: 100-400 mg/kg) (Chiron, C., Dumas, C., Jambaque, I., Mumford, J. & Dulac, O. Randomized trial comparing vigabatrin and hydrocortisone in infantile spasms due to tuberous sclerosis. Epilepsy research Vol. 26, 389-395 (1997); Lux, A. L., et al. The United Kingdom Infantile Spasms Study comparing vigabatrin with prednisolone or tetracosactide at 14 days: a multicentre, randomised controlled trial. Lancet Vol. 364, 1773-1778 (2004); Aicardi, J., Mumford, J. P., Dumas, C. & Wood, S. Vigabatrin as initial therapy for infantile spasms: a European retrospective survey. Sabril IS Investigator and Peer Review Groups. Epilepsia Vol. 37, 638-642 (1996)). Taurine supplementation was given in drinking water at a concentration of 0.1M. Light intensity in the animal cages ranged between 125 and 130 lux for rats and between 70 and 85 lux for mice.
Photopic ERGs were recorded after the last VGB injection, as described previously (Duboc, A., et al. Vigabatrin, the GABA-transaminase inhibitor, damages cone photoreceptors in rats. Annals of neurology Vol. 55, 695-705 (2004).). Anesthesia was induced by intraperitoneal injection (0.8 to 1.2 ml/kg) of a solution containing ketamine (40 mg/ml) and xylazine (4 mg/ml Rompum). Animals were light-adapted for 10 minutes with a background light of 25 cdm^−2. Light flashes were then applied on this background light; the light intensity of the flash was 10 cdsm^−2 for the mouse experiments and for the rats maintained in darkness (FIGS. 2, 6) or 25 cdsm^−2 for other experiments (FIGS. 3, 5). Ten recordings were averaged with an interstimulus interval of 30 s.

[4] = system: BALB/c mice; experiment: Retinal histology quantification in vigabatrin-treated mice; type: in vivo, mouse
Procedure: as §5
Eye cups were fixed overnight at 4° C. in 4% (wt/vol) paraformaldehyde in phosphate buffered saline (PBS; 0.01M, pH 7.4). The tissue was cryoprotected in successive solutions of PBS containing 10%, 20% and 30% sucrose at 4° C., oriented along the dorso-ventral axis and embedded in OCT (Labonord, Villeneuve d′Ascq, France). Retinal sections (8-10 μm thickness) were permeabilised for five minutes in PBS containing 0.1% Triton X-100 (Sigma, St. Louis, Mo.), rinsed, and incubated in PBS containing 1% bovine serum albumin (Eurobio, Les-Ulis, France), 0.1% Tween 20 (Sigma), and 0.1% sodium azide (Merck, Fontenay-Sous-Bois, France) for two hours at room temperature. The primary antibody added to the solution was incubated for two hours at room temperature. Polyclonal antibodies were directed against VGluT1 (1:2000, Chemicon), rabbit GFAP (1/400, Dako, USA) and mouse cone arrestin (Zhu, X., et al. Mouse cone arrestin expression pattern: light induced translocation in cone photoreceptors. Molecular vision Vol. 8, 462-471 (2002)) (Luminaire junior, LUMIj, 1:20,000). Monoclonal antibodies were directed against Goa (1:2000, Chemicon). Sections were rinsed and then incubated with the secondary antibody, goat anti-rabbit IgG or rabbit anti-mouse IgG conjugated to either Alexa TM594 or Alexa TM488 (1:500, Molecular Probes, Eugene, Oreg.) for two hours. […]
as §2

[5] = Plasma taurine levels in infants with infantile spasms receiving VGB therapy; type: in vivo, human; conditions: for Taurine level: measured
Procedure: Blood samples were collected in haemolysis tubes containing heparin (14 IU/ml) and centrifuged (2200 g, 15 min). Plasma amino-acid analysis was performed by ion-exchange chromatography with nihydrin detection using a JEOL AMINOTAC analyser.
We then evaluated whether these findings have any clinical relevance in patients with epilepsy. Plasma taurine levels were reviewed retrospectively in patients presenting infantile spasms, who had received VGB treatment for at least six months in Necker Hospitals for the last 3 years. Plasma amino-acid levels are routinely measured in patients with infantile spasms as part of their etiological work-up, particularly when brain RMI is negative. Data were available in six patients (Table 2 hereunder). […] For one of these two patients (patient 2), the taurine level was measured before starting a 15 month period of VGB therapy and this taurine level was normal. In patient 6, the taurine level was in the lower part of the normal range, but this measurement could have been overestimated by the delayed blood centrifugation. Thus, taurine levels seem to be decreased in VGB-treated epileptic infants.

[6] = Blood/plasma amino acid concentrations in vigabatrin-treated rats; type: in vivo, rat
Procedure: as §3
After 65 days of injection, rats were anesthetized for blood sampling. Anesthesia was induced as described above. Under anesthesia an indwelling catheter was placed in the carotid artery. This method allowed obtaining a single, large, good quality blood sample. A 1 mL blood sampling was taken for each rat in a heparinized blood sampler, immediately centrifuged and frozen at −80° C. Automated amino acid ion chromatography (Pasteur Cerba, France) was used for the quantitative determination of total and free amino acids in the samples.
as §1, with “0.1M.” for “0.1M. Light intensity in the animal cages ranged between 125 and 130 lux for rats and between 70 and 85 lux for mice.”

[7] = vigabatrin alone versus control, listed as Vigabatrin
[8] = vigabatrin alone versus control, listed as vigabatrin
[9] = VGB with taurine supplementation versus without, p<0.001
[10] = supplementation in addition to vigabatrin

C=CC(N)CCC(=O)O (stereo not drawn) [VGB, 4-amino-5-hexenoic acid]
GFAP immunostaining ([1]; VGB alone): increase in GFAP immunostaining | Photopic ERG amplitude [2, 7]: decrease | Photopic ERG amplitude [2, 8]: decrease in amplitude | Photopic ERG amplitude ([3]; vigabatrin alone versus control): significantly lower photopic ERG amplitude than the control group | Photopic ERG amplitude [3, 7]: decrease | Photopic ERG amplitude [3, 8]: decrease in amplitude | Sprouting of bipolar cell dendrites ([4]; VGB alone): observed | Density of cone outer and inner segments ([4]; VGB alone versus control, p<0.001): lower densities | Taurine level ([5]; patient 1, VGB, normal 70 ± 22, delay to plasma preparation <2 h): und* | Taurine level ([5]; patient 2, VGB, normal 70 ± 22, delay <2 h): und | Taurine levels in VGB-treated epileptic infants (overall) ([5]; six patients, VGB for at least six months): decreased | Decrease of taurine level versus control animals ([6]; VGB-treated rats, 65 days, p<0.05): 67% | Reduction of methionine concentration versus control animals ([6]; VGB-treated rats, 65 days, significant): 22% | Reduction of glutamic acid concentration versus control animals ([6]; VGB-treated rats, 65 days, statistically significant): 56%

NCCS(=O)(=O)O [taurine, 2-aminoethanesulfonic acid]
GFAP immunostaining [1, 9]: less extensive in animals receiving taurine supplementation | Cone segment density ([1]; VGB with taurine supplementation versus without, p<0.05): greater in the VGB-treated group with taurine supplementation | Photopic ERG amplitude ([2]; supplementation in addition to vigabatrin, versus vigabatrin alone): decreased less than in vigabatrin alone; also recorded: greater in VGB-treated animals receiving taurine supplementation; also recorded: smaller decrease in photopic ERG amplitude | Photopic ERG amplitude [3, 10]: no longer statistically significant; also recorded: smaller decrease in photopic ERG amplitude | Photopic ERG amplitude ([3]; supplementation in addition to vigabatrin, listed as Taurine): suppressed this decrease in photopic ERG amplitude | Sprouting of bipolar cell dendrites ([4]; VGB with taurine supplementation): completely suppressed | Disorganisation of the outer nuclear layer (areas of retinal disorganisation) [4, 9]: smaller areas of retinal disorganisation | Density of cone outer and inner segments ([4]; VGB with taurine supplementation, p<0.001): prevented this decrease in cone density | Plasma levels of taurine ([6]; taurine 0.1M in drinking water of VGB-treated rats, n=7): increased above those of control animals

Cc1ncc(COP(=O)(O)O)c(C=O)c1O [vitamin B6, pyridoxal-5′-phosphate]
Photopic ERG amplitude [3, 10]: reduced the decrease in photopic ERG amplitude; also recorded: smaller decrease in photopic ERG than with vigabatrin alone
